Reference: ChEMBL document CHEMBL4177597, “A series of novel indazole derivatives of Sirt 1 activator as osteogenic regulators” (Bioorg Med Chem Lett, 2017)
Calls of active or inactive are those of the source. No cut-off for these calls is given here.

Tests used:
[1] = target: T1, NAD-dependent protein deacetylase sirtuin-1 (Homo sapiens) (UniProt Q96EB6); experiment: Activation of SIRT1 (unknown origin) by mass spectrophotometric analysis
T1 sequence (whole entry): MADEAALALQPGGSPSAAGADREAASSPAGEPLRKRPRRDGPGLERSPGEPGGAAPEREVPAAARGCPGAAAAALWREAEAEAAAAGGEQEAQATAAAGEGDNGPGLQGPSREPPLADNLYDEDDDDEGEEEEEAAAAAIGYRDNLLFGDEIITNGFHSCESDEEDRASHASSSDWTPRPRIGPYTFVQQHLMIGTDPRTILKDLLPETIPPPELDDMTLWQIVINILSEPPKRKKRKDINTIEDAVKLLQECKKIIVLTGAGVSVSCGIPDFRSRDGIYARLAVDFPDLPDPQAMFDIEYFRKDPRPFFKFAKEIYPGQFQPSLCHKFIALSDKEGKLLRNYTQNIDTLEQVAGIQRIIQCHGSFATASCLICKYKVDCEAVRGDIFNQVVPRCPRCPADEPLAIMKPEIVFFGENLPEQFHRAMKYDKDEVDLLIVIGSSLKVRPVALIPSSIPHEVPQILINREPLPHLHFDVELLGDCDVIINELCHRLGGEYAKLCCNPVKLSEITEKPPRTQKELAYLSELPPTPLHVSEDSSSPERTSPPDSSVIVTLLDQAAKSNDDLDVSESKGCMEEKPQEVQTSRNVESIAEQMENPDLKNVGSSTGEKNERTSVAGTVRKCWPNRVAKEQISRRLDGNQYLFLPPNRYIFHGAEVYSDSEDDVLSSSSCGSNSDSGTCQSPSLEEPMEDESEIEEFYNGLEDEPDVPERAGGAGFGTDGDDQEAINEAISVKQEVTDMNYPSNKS

[2] = Octanol-water apparent partition coefficient, log D of the compound at pH 7.4 after 24 hrs by shake flask method; format: physicochemical
[3] = target: T1, NAD-dependent protein deacetylase sirtuin-1 (Homo sapiens); experiment: Activation of SIRT1 in human U2OS cells assessed as increase in deacetylation of doxorubicin-induced acetylated p53 at 0.01 to 1 uM by Western blot analysis; format: cell-based
[4] = target: T1, NAD-dependent protein deacetylase sirtuin-1 (Homo sapiens); experiment: Activation of SIRT1 in human U2OS cells assessed as increase in ALP activity using p-NPP as substrate measured after 30 mins by colorimetric method; format: cell-based

Row | Compound | EC150 [1] | other results
1 | Cn1nc(-c2ccc(C(=O)N[C@H]3CC[C@H](O)CC3)cc2)c2cc(NCc3cc(F)c(F)cc3S(C)(=O)=O)ccc21 | 0.4 µM | logD at 24 h [2]: 1.37; Activity [3]: Active; EC30 [4]: 0.65 nM
2 | Cn1nc(-c2cnc3ccccc3c2)c2cc(NCc3cc(F)ccc3S(C)(=O)=O)ccc21 | 1.49 µM | –
3 | Cn1nc(-c2cc3ccccc3s2)c2cc(NCc3cc(F)ccc3S(C)(=O)=O)ccc21 | 1.52 µM | –
4 | Cn1nc(-c2ccc(C(=O)NCC3CCCO3)cc2)c2cc(NCc3cc(F)ccc3S(C)(=O)=O)ccc21 (configuration not stated) | 1.46 µM | –
5 | Cn1nc(-c2ccc3ccccc3c2)c2cc(NCc3cc(F)ccc3S(C)(=O)=O)ccc21 | 2.88 µM | –
6 | Cc1cc(CNc2ccc3c(c2)c(-c2ccc(C(=O)N[C@H]4CC[C@H](O)CC4)cc2)nn3C)c(S(C)(=O)=O)cc1F | > 20 µM | –
7 | Cn1nc(-c2ccc(C(=O)NCCc3ccn[nH]3)cc2)c2cc(NCc3cc(F)ccc3S(C)(=O)=O)ccc21 | 1.36 µM | –
8 | CNC(=O)c1ccc(-c2nn(C)c3ccc(NCc4cc(F)ccc4S(C)(=O)=O)cc23)cc1 | 2.92 µM | –

Second part, led by results:

Row | EC150 [1] | Compound | other results
9 | 7.23 µM | COCCS(=O)(=O)c1ccccc1CNc1ccc2c(c1)c(-c1ccc(C(=O)N[C@H]3CC[C@H](O)CC3)cc1)nn2C | –
10 | 0.95 µM | Cn1nc(-c2ccc(C(=O)N[C@H]3CC[C@H](O)CC3)cc2)c2cc(NCc3cc(F)ccc3S(C)(=O)=O)ccc21 | –
11 | 4.54 µM | CCCS(=O)(=O)c1ccccc1CNc1ccc2c(c1)c(-c1ccc(C(=O)N[C@H]3CC[C@H](O)CC3)cc1)nn2C | –
12 | 0.4 µM | Cc1cc(S(C)(=O)=O)c(CNc2ccc3c(c2)c(-c2ccc(C(=O)N[C@H]4CC[C@H](O)CC4)cc2)nn3C)cc1F | logD at 24 h [2]: 1.41
13 | 2.4 µM | CCS(=O)(=O)c1ccccc1CNc1ccc2c(c1)c(-c1ccc(C(=O)N[C@H]3CC[C@H](O)CC3)cc1)nn2C | –
